The text below walks through data of PMC4300089, “Structure-Guided Design of Selective Epac1 and Epac2 Agonists” (PLoS Biology, 2015).

The structures appear in SMILES notation.

One test has as its target T1, Epac2^fl (Mus musculus, UniProt Q9EQZ6).
T1 sequence (Q9EQZ6 1-993 isoform Q9EQZ6-3): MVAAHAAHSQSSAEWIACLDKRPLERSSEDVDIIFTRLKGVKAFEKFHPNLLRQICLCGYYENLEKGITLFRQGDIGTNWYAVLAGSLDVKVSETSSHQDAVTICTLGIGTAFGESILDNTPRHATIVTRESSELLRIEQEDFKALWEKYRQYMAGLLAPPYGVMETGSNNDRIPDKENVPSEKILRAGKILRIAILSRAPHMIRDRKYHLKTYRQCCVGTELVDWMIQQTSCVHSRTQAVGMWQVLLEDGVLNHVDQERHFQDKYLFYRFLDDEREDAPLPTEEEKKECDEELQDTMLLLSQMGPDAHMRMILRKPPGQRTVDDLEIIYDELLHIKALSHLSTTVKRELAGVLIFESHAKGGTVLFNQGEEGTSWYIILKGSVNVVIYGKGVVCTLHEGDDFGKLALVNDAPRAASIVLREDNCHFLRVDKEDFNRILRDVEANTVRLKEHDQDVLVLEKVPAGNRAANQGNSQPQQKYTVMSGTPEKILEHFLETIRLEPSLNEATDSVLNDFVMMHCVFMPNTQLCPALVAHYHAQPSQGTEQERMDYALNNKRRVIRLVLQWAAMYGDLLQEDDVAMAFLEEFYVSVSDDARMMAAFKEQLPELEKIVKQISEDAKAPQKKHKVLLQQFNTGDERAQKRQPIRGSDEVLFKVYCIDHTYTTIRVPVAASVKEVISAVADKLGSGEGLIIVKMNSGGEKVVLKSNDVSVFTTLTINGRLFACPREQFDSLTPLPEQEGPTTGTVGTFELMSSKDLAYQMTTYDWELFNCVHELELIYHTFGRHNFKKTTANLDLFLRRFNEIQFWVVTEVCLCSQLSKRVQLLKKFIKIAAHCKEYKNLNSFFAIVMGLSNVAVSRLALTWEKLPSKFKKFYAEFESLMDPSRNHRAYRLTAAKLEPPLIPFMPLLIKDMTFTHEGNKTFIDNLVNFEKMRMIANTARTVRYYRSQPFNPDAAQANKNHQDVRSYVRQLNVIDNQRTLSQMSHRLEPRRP
The test can be described thus: Epac activation assay, full length Epac2. It counts as biochemical. On the set-up: made in house. The method, then:
Murine Epac2 was used as all previous structural studies were performed with it.
The activity of Epac was determined by a fluorescence assay. […] The fluorescence intensity of Rap1B•mGDP is approximately twice that of free mGDP, and thus, nucleotide exchange can be observed as a decay in fluorescence upon the addition of excess unlabeled GDP.

Another test deals with T2, Epac1 (Homo sapiens, UniProt O95398).
T2 construct: pBabe-Flag-Epac1 (Epac1, homo sapiens, amino acids 1–881); expressed in transfected cells; host or cells: U2OS
T2 sequence (O95398 1-881 isoform O95398-3): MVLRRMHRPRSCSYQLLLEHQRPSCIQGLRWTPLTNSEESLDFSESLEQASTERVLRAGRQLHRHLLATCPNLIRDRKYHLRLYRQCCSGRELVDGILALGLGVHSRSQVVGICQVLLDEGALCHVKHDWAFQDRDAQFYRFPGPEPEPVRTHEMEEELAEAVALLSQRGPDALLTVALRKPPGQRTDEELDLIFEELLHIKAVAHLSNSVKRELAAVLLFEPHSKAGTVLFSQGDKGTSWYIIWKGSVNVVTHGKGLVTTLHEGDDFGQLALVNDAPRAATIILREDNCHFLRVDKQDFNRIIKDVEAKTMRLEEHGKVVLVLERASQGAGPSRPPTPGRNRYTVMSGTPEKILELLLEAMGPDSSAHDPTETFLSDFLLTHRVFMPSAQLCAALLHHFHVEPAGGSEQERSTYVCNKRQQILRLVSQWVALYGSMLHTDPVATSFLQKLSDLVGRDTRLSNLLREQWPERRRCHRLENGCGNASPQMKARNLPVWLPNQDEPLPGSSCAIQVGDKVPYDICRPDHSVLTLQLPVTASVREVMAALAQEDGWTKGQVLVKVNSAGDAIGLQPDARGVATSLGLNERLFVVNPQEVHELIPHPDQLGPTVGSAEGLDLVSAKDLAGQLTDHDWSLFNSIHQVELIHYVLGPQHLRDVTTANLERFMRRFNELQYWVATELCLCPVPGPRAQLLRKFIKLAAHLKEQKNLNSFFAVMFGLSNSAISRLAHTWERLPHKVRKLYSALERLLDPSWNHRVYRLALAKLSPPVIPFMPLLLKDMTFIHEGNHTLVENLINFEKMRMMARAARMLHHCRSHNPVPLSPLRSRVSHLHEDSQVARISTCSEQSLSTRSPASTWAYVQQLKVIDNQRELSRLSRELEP
The test can be described thus: Cellular Epac activity: Rap•GTP levels in U2OS cells stably expressing Epac1. The class given is cell-based. The conditions noted are these: for rel. RapGTP: relative to induction with forskolin and IBMX, Fig. 6C. The protocol: Rap•GTP levels were determined by precipitating GTP-bound Rap specifically from cell lysates and subsequent western Blotting with an α-Rap antibody (Santa Cruz Biotechnology). To generate stable cell lines, U2OS cells were transfected with pBabe-Flag-Epac1 (Epac1, homo sapiens, amino acids 1–881) or pBabe-Flag-Epac2 (Epac2, mus musculus, amino acids 1–993), selected for Epac expression and maintained under selection with 2 mg/l puromycin. The cells were cultured according to standard protocols. The activity of PKA was determined by western blotting with a monoclonal α-VASP antibody (BD Transduction Laboratories). Blots were developed by enhanced chemiluminescence (ECL) and the use of X-ray films; for quantification films were scanned. The intensities of the Rap•GTP bands and the upper band of VASP (P-VASP) were determined for each condition in ImageJ and normalized to the stimulation with forskolin and IBMX for each blot.

With `Cc1ccc(CSc2nc3c(N)ncnc3n2[C@@H]2O[C@@H]3CO[P@](O)(=S)O[C@H]3[C@H]2O)cc1` [S-230, Sp-8-pMeBnT-cAMPS], the kobs turned out to be 2.5e-05 s⁻¹ at Epac2^fl (0.2 μM compound); 2.9e-05 s⁻¹ at Epac2^fl (0.3 μM compound); 3.1e-05 s⁻¹ on Epac2^fl (0.4 μM compound); 3.3e-05 s⁻¹ at Epac2^fl (0.5 μM compound); 3.6e-05 s⁻¹ on Epac2^fl (0.6 μM compound); 4e-05 s⁻¹ at Epac2^fl (0.7 μM compound). For the same compound, the kobs on Epac2^fl (0.8 μM compound) stood at 4.1e-05 s⁻¹; at Epac2^fl (1 μM compound), 4.7e-05 s⁻¹; on Epac2^fl (2 μM compound), 8.9e-05 s⁻¹; on Epac2^fl (3 μM compound) it was 0.000128 s⁻¹; at Epac2^fl (4 μM compound), 0.000139 s⁻¹; on Epac2^fl (5 μM compound), 0.000145 s⁻¹. The kobs stood at 0.000194 s⁻¹ on Epac2^fl (6 μM compound); 0.000209 s⁻¹ on Epac2^fl (7 μM compound); 0.000213 s⁻¹ at Epac2^fl (8 μM compound); 0.000238 s⁻¹ at Epac2^fl (10 μM compound); 0.000358 s⁻¹ at Epac2^fl (20 μM compound); 0.000429 s⁻¹ at Epac2^fl (30 μM compound). The kobs was 0.000467 s⁻¹ on Epac2^fl (40 μM compound); 0.000491 s⁻¹ at Epac2^fl (50 μM compound); 0.000519 s⁻¹ on Epac2^fl (60 μM compound); 0.00055 s⁻¹ on Epac2^fl (70 μM compound); 0.000558 s⁻¹ on Epac2^fl (80 μM compound); 0.000582 s⁻¹ at Epac2^fl (100 μM compound). Besides, the kobs stood at 0.000643 s⁻¹ on Epac2^fl (200 μM compound), 0.00061 s⁻¹ at Epac2^fl (400 μM compound), 0.000556 s⁻¹ on Epac2^fl (600 μM compound) and 0.000527 s⁻¹ on Epac2^fl (800 μM compound).

Regarding `Nc1ncnc2c1ncn2[C@@H]1O[C@@H]2COP(=O)(O)O[C@H]2[C@H]1O` [cAMP, reference compound], the kobs turned out to be 1.9e-05 s⁻¹ at Epac2^fl (0.2 μM compound); 2e-05 s⁻¹ on Epac2^fl (0.3 μM compound); 2.1e-05 s⁻¹ on Epac2^fl (0.4 μM compound); 2.1e-05 s⁻¹ at Epac2^fl (0.5 μM compound); 2.5e-05 s⁻¹ at Epac2^fl (0.6 μM compound); 2.36e-05 s⁻¹ at Epac2^fl (0.7 μM compound). Also, the kobs at Epac2^fl (0.8 μM compound) is 2.47e-05 s⁻¹; at Epac2^fl (1 μM compound) it was 2.84e-05 s⁻¹; at Epac2^fl (2 μM compound) it was 3.47e-05 s⁻¹; at Epac2^fl (3 μM compound), 4.1e-05 s⁻¹; on Epac2^fl (4 μM compound) it was 4.71e-05 s⁻¹; at Epac2^fl (5 μM compound), 5.23e-05 s⁻¹. Moreover, the kobs on Epac2^fl (6 μM compound) turned out to be 5.05e-05 s⁻¹; on Epac2^fl (7 μM compound) it was 5.49e-05 s⁻¹; at Epac2^fl (8 μM compound), 6.35e-05 s⁻¹; on Epac2^fl (10 μM compound) it was 7.22e-05 s⁻¹; at Epac2^fl (20 μM compound), 0.000116 s⁻¹; at Epac2^fl (30 μM compound) it was 0.000142 s⁻¹. In addition, the kobs was determined as 0.000159 s⁻¹ on Epac2^fl (40 μM compound); 0.000167 s⁻¹ on Epac2^fl (50 μM compound); 0.000192 s⁻¹ on Epac2^fl (60 μM compound); 0.000198 s⁻¹ at Epac2^fl (70 μM compound); 0.000203 s⁻¹ on Epac2^fl (80 μM compound); 0.000207 s⁻¹ at Epac2^fl (100 μM compound). Besides, the kobs on Epac2^fl (200 μM compound) was determined as 0.000219 s⁻¹; on Epac2^fl (400 μM compound), 0.000212 s⁻¹; on Epac2^fl (600 μM compound), 0.000207 s⁻¹; at Epac2^fl (800 μM compound), 0.000224 s⁻¹.

For the compound `COC1C2OP(=O)(O)OCC2OC1n1c(Sc2ccc(Cl)cc2)nc2c(N)ncnc21` [D-007, 8-pCPT-2′-O-Me-cAMP, reference compound], on Epac1, the “activation of Epac1 in cells” value is reported as “strongly activated”. Further, the “rel. RapGTP” value on Epac1 was determined as 1.65. The kobs was 1.59e-05 s⁻¹ at Epac2^fl (0.3 μM compound); 1.62e-05 s⁻¹ on Epac2^fl (0.5 μM compound); 1.75e-05 s⁻¹ on Epac2^fl (0.8 μM compound); 1.95e-05 s⁻¹ at Epac2^fl (1 μM compound); 2.18e-05 s⁻¹ at Epac2^fl (2 μM compound); 2.37e-05 s⁻¹ at Epac2^fl (3 μM compound). Moreover, the kobs at Epac2^fl (4 μM compound) was found to be 2.69e-05 s⁻¹; on Epac2^fl (5 μM compound), 2.86e-05 s⁻¹; at Epac2^fl (6 μM compound), 3.39e-05 s⁻¹; at Epac2^fl (7 μM compound), 3.51e-05 s⁻¹; on Epac2^fl (8 μM compound), 3.74e-05 s⁻¹; at Epac2^fl (10 μM compound), 4.22e-05 s⁻¹. The kobs was 5.69e-05 s⁻¹ at Epac2^fl (20 μM compound); 7e-05 s⁻¹ on Epac2^fl (30 μM compound); 7.51e-05 s⁻¹ on Epac2^fl (40 μM compound); 7.76e-05 s⁻¹ on Epac2^fl (50 μM compound); 8.43e-05 s⁻¹ at Epac2^fl (60 μM compound); 8.92e-05 s⁻¹ at Epac2^fl (70 μM compound). Moreover, the kobs at Epac2^fl (80 μM compound) worked out at 9.01e-05 s⁻¹; at Epac2^fl (100 μM compound) it was 9.57e-05 s⁻¹; on Epac2^fl (200 μM compound) it was 9.52e-05 s⁻¹; at Epac2^fl (400 μM compound), 9.57e-05 s⁻¹; at Epac2^fl (600 μM compound), 9.06e-05 s⁻¹; on Epac2^fl (800 μM compound), 8.29e-05 s⁻¹. Besides, at Epac2^fl (Epac2), the “ability to reach half-maximal cAMP activity” value is given as “reaches half-maximal cAMP activity with Epac2 only under saturating conditions”. The compound further had an AC50 on Epac2^fl (Epac2^fl) of 16 µM. The compound also yielded a Rel. kmax at Epac2^fl (Epac2^fl, maximal activity relative to cAMP) of 0.4.

With `Nc1ncnc2c1nc(Sc1ccc(Cl)cc1)n2[C@@H]1O[C@@H]2COP(=O)(O)O[C@H]2[C@H]1O` [L-026, 8-pCPT-cAMP], the “rel. RapGTP” value at Epac1 was 1.1255.
